According to patent publication US20040171062A1, “Methods for the design of molecular scaffolds and ligands” (Plexxikon, Inc., priority 2002, published 2004):
One block for each molecule: values may come before it.

How the values were obtained:
Assay type in all cases: biochemical
[1] = biological target: T1, Pyk2 kinase domain residues 419 to 691 (Homo sapiens, UniProt Q14289); assay: Pyk2 kinase domain AlphaScreen activity and inhibition by ATP analogs; conditions: Pyk2 at 8 ng/well, ATP at 10 uM; for IC50: fit y = ((Vmax*x^n)/(K^n + x^n)) + Y2; for effect on PYK2: in the concentration tested
T1 construct: PYK2 kinase domain I420-M691; hexa-histidine (thrombin-cleavable, pET15S; leaves GSHM before I420) (N, cleaved yes); made in house; host or cells: E. coli BL21 (DE3) pLysS
Experimental: Inhibition by ATP analogs was tested with Pyk2 at 8 ng/well and ATP at 10 uM.

[2] = biological target: T1, Pyk2 kinase domain residues 419 to 691; assay: as above
PIM-1 = biological target: T2, PIM-1 (Homo sapiens, UniProt P11309); assay: PIM-1 kinase activity assay (MBP substrate, 33P-ATP FlashPlate)
T2 construct: expressing PIM-1 kinase domain (29-313) was suspended; made in house; host or cells: E. coli BL21(DE3)pLysS
Experimental: Inhibitory or exhitory activity of compounds binding to PIM-1 was determined using a kinase assay.
An assay for kinase activity that can be used for PIM kinases, e.g., PIM-1, can be performed according to the following procedure using purified kinase using myelin basic protein (MBP) as substrate.
Coat scintillation plate suitable for radioactivity counting (e.g., FlashPlate from Perkin-Elmer, such as the SMP200(basic)) with kinase+MBP mix (final 100 ng+300 ng/well) at 90-μL/well in kinase buffer. Add compounds at 1 μL/well from 10 mM stock in DMSO. Positive control wells are added with 1 μL of DMSO. Negative control wells are added with 2 μL of EDTA stock solution. ATP solution (10 μL) is added to each well to provide a final concentration of cold ATP is 2 μM, and 50 nCi ATPγ[^33P]. The plate is shaken briefly, and a count is taken to initiate count (IC) using an apparatus adapted for counting with the plate selected, e.g., Perkin-Elmer Trilux. Store the plate at 37° C. for 4 hrs, then count again to provide final count (FC).
Net 33P incorporation (NI) is calculated as: NI=FC−IC.
The effect of the present of a test compound can then be calculated as the percent of the positive control as: % PC=[(NI−NC)/(PC−NC)]×100, where NC is the net incorporation for the negative control, and PC is the net incorporation for the positive control. […]

Pyk2 = biological target: T3, Pyk2 (Homo sapiens, UniProt Q14289); assay: Pyk-2 inhibitory activity (kinase ELISA, poly(Glu:Tyr))
T3 construct: the Pyk2 was the kinase domain-(His)6 fusion; (His)6 (C); made in house; host or cells: E. coli BL21
T3 sequence (Q14289 425-683 limits assumed): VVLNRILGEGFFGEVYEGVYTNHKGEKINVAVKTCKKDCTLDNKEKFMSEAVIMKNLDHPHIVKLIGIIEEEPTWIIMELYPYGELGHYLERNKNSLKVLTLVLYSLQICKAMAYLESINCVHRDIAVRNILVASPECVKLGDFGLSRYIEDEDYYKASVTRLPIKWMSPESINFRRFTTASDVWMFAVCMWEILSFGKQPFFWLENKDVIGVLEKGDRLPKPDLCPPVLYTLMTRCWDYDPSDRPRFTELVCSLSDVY
Experimental: Csk (and Pyk2 in a separate assay) were mixed with poly(Glu:Tyr) and coated on an ELISA plate in kinase buffer. Test compounds were added to each well at a concentration of about 200 uM. ATP was added to a final concentration of 2 uM. After 1 hour of incubation at 37 C, phospho-Tyr was detected with ELISA solution. Color development of TMB was measured at 650 nm. The Csk was the (His)6-kinase domain fusion, and the Pyk2 was the kinase domain-(His)6 fusion, both produced in BL21 E. coli. The kinase buffer was 50 mM HEPES, pH 7.2 with 100 uM of manganese. The ELISA solution was 1:1000 at 5% milk.

T1 sequence (Q14289 420-691): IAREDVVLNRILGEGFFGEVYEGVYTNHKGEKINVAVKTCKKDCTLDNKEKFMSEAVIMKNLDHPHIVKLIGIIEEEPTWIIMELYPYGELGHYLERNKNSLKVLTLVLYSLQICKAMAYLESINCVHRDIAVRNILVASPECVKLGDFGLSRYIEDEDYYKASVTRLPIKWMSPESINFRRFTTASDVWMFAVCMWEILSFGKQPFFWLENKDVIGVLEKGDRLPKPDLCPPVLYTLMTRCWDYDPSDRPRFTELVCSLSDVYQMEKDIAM
T2 sequence (P11309 29-313): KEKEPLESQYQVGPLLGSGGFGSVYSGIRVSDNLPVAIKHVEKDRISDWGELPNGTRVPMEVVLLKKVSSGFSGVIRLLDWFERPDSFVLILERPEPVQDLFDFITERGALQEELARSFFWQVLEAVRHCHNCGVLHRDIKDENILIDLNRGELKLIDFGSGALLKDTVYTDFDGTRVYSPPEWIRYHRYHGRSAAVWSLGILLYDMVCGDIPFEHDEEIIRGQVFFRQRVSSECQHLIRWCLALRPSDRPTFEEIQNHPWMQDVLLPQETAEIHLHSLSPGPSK

Structure (SMILES): Nc1ncnc2c1ncn2[C@@H]1O[C@H](COP(=O)(O)OP(=O)(O)O)[C@@H](O)[C@H]1O [ADT]
- affinity with Pyk2 [1]: 14 µM
- IC50 [1]: 14.9 µM

Structure (SMILES): Nc1ncnc2c1ncn2[C@@H]1O[C@H](COP(=O)(O)OP(=O)(O)CP(=O)(O)O)[C@@H](O)[C@H]1O [AMPPCP]
- IC50 [1]: 7690 µM
- effect on PYK2 [1]: little effect

Structure (SMILES): Nc1ncnc2c1ncn2C1OC(COP(=O)(O)OP(=O)(O)NP(=O)(O)O)C(O)C1O (centres unmarked) [AMPPNP, 5′-adenylylimidodiphosphate]
- IC50 [1]: 18.1 µM

Structure (SMILES): Nc1ncnc2c1ncn2[C@@H]1O[C@H](COP(=O)(O)O)[C@@H](O)[C@H]1O [AMP]
- IC50 [1]: 80.2 µM

Structure (SMILES): Nc1ncnc2c1ncn2[C@@H]1O[C@H](COP(=O)(O)OP(=O)(O)OP(=O)(O)O)[C@@H](O)[C@H]1O [ATP]
- K (Pyk2 activity) ([2]; Pyk2 8 ng/well, 384-well plate, fit y = (Vmax*x)/(K + x)): 7.37 µM
- Kd ([2]; Pyk2 at 8 ng/well in 384-well plate, AlphaScreen): 7.34 µM

Further lines, results first:

- affinity with Pyk2 [1]: 14 µM
- IC50 [1]: 13.6 µM
Structure (SMILES): Nc1ncnc2c1ncn2[C@@H]1O[C@H](COP(=O)(O)OP(=O)(O)OP(O)(O)=S)[C@@H](O)[C@H]1O [ATP-g-S]

- effect on PYK2 [1]: little effect
Structure (SMILES): Nc1ncnc2c1ncn2[C@@H]1O[C@H](CO)[C@@H](O)[C@H]1O [Adenosine]

- inhibition at 200 µM (PIM-1; at 200 μM concentration): 8%
- IC50 (PIM-1; read-out: IC50, inhibitory activity against PIM-1): > 200 µM
- IC50 (Pyk2): > 200 µM
Structure (SMILES): c1cnc2[nH]ccc2c1 [Formula III, R1=R2=R3=R4=R5=H]
